Source: patent US20120309838A1, “USE OF AGOMELATINE IN OBTAINING MEDICAMENTS INTENDED FOR THE TREATMENT OF OBSESSIVE-COMPULSIVE DISORDER (OCD)” (Les Laboratoires Servier, priority 2010, published 2012)
Entries after “also recorded” stand apart in the source; their conditions may differ.

Columns and labels:
patients = experiment: Tolerability observed in clinical trials on close to 3900 patients; format: in vivo, human
From the text: Amongst those effects, the discontinuation syndrome observed on stopping treatment with the customary psychotropic agents is absent in the case of agomelatine, which makes it a treatment of choice in this indication.

[1] = tested on: Male mice of the NMRI strain; experiment: Spontaneous marble burying in mice (model of Obsessive-Compulsive Disorder); format: in vivo; details: for number of marbles buried: injected 30 minutes before test, 30 minutes' exploration, 24 marbles, carrier 20.2±0.6
Experimental: Pre-clinical studies were carried out using a model of Obsessive-Compulsive Disorder (OCD), confirming the potential of agomelatine for treatment of this pathology. […] The study was carried out as follows. Male mice of the NMRI strain (Iffa-Credo, L'Arbresle, France), weighing 20-25 g on the day of the experiment, were placed individually in Macrolon boxes (30×18×19 cm) containing 5 cm of sawdust and covered with a perforated plexiglass plate. Twenty-four “cat's eye” glass marbles were evenly distributed on the sawdust at the periphery of the box. At the end of 30 minutes' free exploration, the animals were removed from the box and the number of buried marbles was counted. Agomelatine or the carrier (control) was injected 30 minutes before the start of the test.

[2] = tested on: out-patients having a primary diagnosis of Obsessive-Compulsive Disorder; experiment: Double-blind placebo-controlled clinical study in out-patients with Obsessive-Compulsive Disorder; format: in vivo, human; details: 25 mg, 16 weeks of treatment
Experimental: A clinical study comparing agomelatine with placebo was carried out in 80 out-patients more than 18 and less than 65 years in age, having a primary diagnosis of Obsessive-Compulsive Disorder according to the criteria of DSM-IV-TR. The patients must have, on entry into the study, a score of 20 or more on the Y-BOCS scale (Yale Brown Obsessive Compulsive Scale) and have been previously treated for their Obsessive-Compulsive Disorder with a serotonin reuptake inhibitor (SRI). The patients must have a depression severity score of less than 24 on the MADRS depression scale.
The study is a double-blind placebo-controlled study for a duration of treatment of 16 weeks. The patients are randomised either into the placebo group or into the 25 mg agomelatine group with the possibility of increasing the dose of agomelatine to 50 mg in the event of failure to respond after 8 weeks of treatment (criterion for failure to respond: less than 20% reduction in the total Y-BOCS score).
The main criterion for the assessment of efficacy is the reduction in the total score on the Y-BOCS scale. […] The presence of depressive symptoms and their course over time are analysed by the MADRS depression scale at the start of treatment and after 16 weeks of treatment. […]

## COc1ccc2cccc(CCNC(C)=O)c2c1 [Agomelatine, N-[2-(7-methoxy-1-naphthyl)ethyl]acetamide]
patients; clinical trials on close to 3900 patients
  tolerability (in words): excellent tolerability
patients; compared with the customary psychotropic agents
  discontinuation syndrome on stopping treatment: absent
[1]; 10 mg/kg intraperitoneal, n=6
  number of marbles buried: 19.2±1.3
[1]; 40 mg/kg intraperitoneal, n=6, P<0.05 vs carrier
  number of marbles buried: 15.3±3.0
[1]; 80 mg/kg intraperitoneal, n=5, P<0.05 vs carrier
  number of marbles buried: 4.6±1.9
[1]; intraperitoneal, doses of 10, 40 and 80 mg/kg
  effect on spontaneous marble burying (in words): greatly reduced spontaneous marble burying in mice in dose-dependent manner; also recorded: statistically significant activity
[2]; possibly increased to 50 mg after 8 weeks, versus placebo, 80 out-patients
  efficacy in the treatment of Obsessive-Compulsive Disorder (in words): confirm the efficacy
[2]; possibly increased to 50 mg
  acceptability profile (in words): good acceptability profile
